Assay results reported in PubChem BioAssay (NCI).
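Growth conditions: 96-well plates. Treatment: test compound, 48 hours, 5 concentrations. Analysis: linear interpolation between bracketing concentrations; unreached endpoints set to highest concentration. TGI denotes the concentration required for complete inhibition of growth.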

Columns and labels:
Assay in all cases: growth of human tumour cells (NCI), 48 h
[1] = system: CCRF-CEM leukemia
[2] = system: IGROV1 ovarian
[3] = system: SK-MEL-28 melanoma
[4] = system: RXF 393 renal
[5] = system: K-562 leukemia
[6] = system: HS 578T breast
[7] = system: UACC-62 melanoma
[8] = system: 786-0 renal
[9] = system: A549 NSCLC
[10] = system: HCT-116 colon

SMILES	TGI [1]	TGI [2]	TGI [3]	TGI [4]	TGI [5]	TGI [6]	TGI [7]	TGI [8]	TGI [9]	TGI [10]
N#CC1=C(N)N(c2ccccc2)C(c2ccco2)C1(C#N)C#N (stereo not given)	43.9 µM	47.9 µM	38.9 µM	37.1 µM	37.5 µM	> 100 µM	59.3 µM	35.1 µM	> 100 µM	> 100 µM
Oc1cc2c3c(c1)c1cc4c(cc1c[n+]3CC2)OCO4	> 45.8 µM	> 39.8 µM	> 41.8 µM	> 68.8 µM	> 100 µM	13.6 µM	28.8 µM	> 24.4 µM	> 88.5 µM	> 40.5 µM
O=C1/C(=C/c2ccc(O)cc2)CC/C1=C\c1ccc(O)cc1	6.74 µM	> 100 µM	> 100 µM	> 100 µM	> 100 µM	> 100 µM	> 100 µM	> 100 µM	> 100 µM	> 100 µM
CC(C)CC(=O)OC[n+]1ccc(-c2c(COC(=O)NC(C)C)c(COC(=O)NC(C)C)c3n2CCC3)cc1	> 100 µM	> 100 µM	> 100 µM	> 100 µM	> 100 µM	> 100 µM	> 100 µM	> 100 µM	> 100 µM	> 100 µM
Cc1cccc(/C=N/NC(=S)Nc2ccccc2)n1	> 23.3 µM	> 25 µM	> 100 µM	28.1 µM	> 100 µM	> 100 µM	12.5 µM	9.14 µM	> 100 µM	–
COc1c(C)c(C/C=C(\C)CCCCO[Si](c2ccccc2)(c2ccccc2)C(C)(C)C)c(OC)c(OC)c1OC	> 46.4 µM	42.2 µM	> 100 µM	> 100 µM	> 46.4 µM	> 100 µM	> 46.4 µM	40.5 µM	51 µM	> 46.4 µM
C[C@@]12C[C@@H](c3ccccc3O1)N1CCCCSC1=N2	> 100 µM	> 100 µM	> 100 µM	> 100 µM	> 100 µM	> 100 µM	> 100 µM	> 100 µM	–	> 100 µM
CCNC(=S)N/N=C/c1cc([N+](=O)[O-])ccc1O	38.6 µM	> 100 µM	> 100 µM	> 100 µM	> 100 µM	> 100 µM	93.9 µM	> 100 µM	> 100 µM	40.8 µM
O=C1OCC(O)=C1C(c1ccc(Cl)cc1)c1cc2c(cc1O)OCO2 (stereo not given)	> 100 µM	> 100 µM	> 100 µM	> 100 µM	> 100 µM	> 100 µM	> 100 µM	> 100 µM	> 100 µM	> 100 µM
Cc1ccsc1/C=N/Nc1ncccn1	> 100 µM	> 100 µM	> 100 µM	> 100 µM	> 100 µM	> 100 µM	> 100 µM	> 100 µM	> 100 µM	> 100 µM
O=S1(=O)NC(=NCc2c[nH]c3ccccc23)N(c2ccccc2)c2ccncc21	> 100 µM	–	> 100 µM	> 100 µM	> 100 µM	92.7 µM	> 100 µM	> 100 µM	> 100 µM	> 100 µM
Cc1ccc(SCC(CSCCO)OCn2cnc3c2NC(N)=NC32OCCO2)cc1 (stereo not given)	> 100 µM	> 100 µM	> 100 µM	> 100 µM	> 100 µM	> 100 µM	–	> 100 µM	> 100 µM	> 100 µM
CNC(=O)OCC1=C(COC(=O)NC)C(C)N(c2ccc(OC)cc2)C1 (stereo not given)	> 100 µM	> 100 µM	> 100 µM	> 100 µM	> 100 µM	> 100 µM	57.3 µM	> 100 µM	> 100 µM	> 100 µM
O=[N+]([O-])/C(C(Cl)=C(Cl)Cl)=C(\SCc1ccccc1)N1CCCCC1	30.5 µM	57.1 µM	> 100 µM	62.6 µM	> 100 µM	> 100 µM	72 µM	36.3 µM	> 100 µM	31.3 µM
CCC1(O)CC2CC(=O)OC2C1O (stereo not given)	25.7 µM	> 100 µM	> 100 µM	> 100 µM	> 100 µM	> 100 µM	> 100 µM	> 100 µM	> 100 µM	–
C=C1c2nc3ccccc3n2C=C(c2ccccc2)N1c1ccc([N+](=O)[O-])cc1	> 81.3 µM	27 µM	> 65.2 µM	16 µM	58.2 µM	30.3 µM	32.3 µM	4.13 µM	13.5 µM	35.2 µM
COc1cc2c(cc1OC)C(c1ccccc1CCCCl)=NCC2	> 100 µM	> 100 µM	49.7 µM	> 100 µM	> 100 µM	> 100 µM	> 100 µM	> 100 µM	> 100 µM	> 100 µM
